The results in this text go back to ChEMBL document CHEMBL1201862, “PubChem BioAssay data set” (2004).

Activity calls are given as the source filed them. For most assays here, no stated cut-off is given here; in the data, actives have a measured IC50 and inactives only a lower limit.

The target of the first experiment is T1, Caspase-3 (Homo sapiens, UniProt P42574).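 Further: Dose-response selectivity test against caspase-3 for candidate inhibitors of sentrin-specific proteases (SENPs).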
T1 sequence (P42574 whole entry): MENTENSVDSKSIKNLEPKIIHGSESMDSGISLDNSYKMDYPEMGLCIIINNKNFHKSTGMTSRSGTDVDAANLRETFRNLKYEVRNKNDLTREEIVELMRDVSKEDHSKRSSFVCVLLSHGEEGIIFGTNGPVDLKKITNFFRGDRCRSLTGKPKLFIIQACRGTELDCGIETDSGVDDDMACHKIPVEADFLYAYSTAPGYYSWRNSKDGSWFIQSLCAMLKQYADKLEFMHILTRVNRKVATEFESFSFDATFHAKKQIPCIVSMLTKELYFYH
The format is functional.
The term IC50 denotes the concentration that gives 50% inhibition. In the case of `COc1ccc(C(=O)Nc2nc3c(s2)Cc2cc(OC)ccc2-3)cc1`, the half-maximal inhibitory concentration (IC50) is 3.45 µM (active).
As for `Cc1oc2c(c1C(=O)c1ccccc1)C(=O)C(=O)c1ccccc1-2`, the half-inhibitory concentration (IC50) was 29.3 µM (active).
Regarding `CC(/C=C1\SC(=S)N(NS(=O)(=O)c2ccccc2)C1=O)=C\c1ccccc1`, the IC50 was 7.87 µM (active).

A further experiment deals with Induced myeloid leukemia cell differentiation protein Mcl-1 (Homo sapiens, UniProt Q07820). Format: functional.
Induced myeloid leukemia cell differentiation protein Mcl-1, sequence (Q07820 whole entry): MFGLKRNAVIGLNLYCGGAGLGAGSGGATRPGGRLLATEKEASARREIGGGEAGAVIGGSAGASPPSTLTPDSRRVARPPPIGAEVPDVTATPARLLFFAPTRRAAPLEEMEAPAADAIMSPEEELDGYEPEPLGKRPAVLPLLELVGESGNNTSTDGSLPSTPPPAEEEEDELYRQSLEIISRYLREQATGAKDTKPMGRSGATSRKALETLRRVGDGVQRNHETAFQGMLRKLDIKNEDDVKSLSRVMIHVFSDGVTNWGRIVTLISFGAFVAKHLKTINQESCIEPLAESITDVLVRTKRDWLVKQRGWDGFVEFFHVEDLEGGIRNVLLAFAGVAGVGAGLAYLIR
With `COc1ccc(C(=O)Nc2nc3c(s2)Cc2cc(OC)ccc2-3)cc1`, the IC50 was 3.75 µM (active).
On to `O=C(O)COc1ccc(/C=N/NC(=O)c2ccc(-c3csc(Nc4ccc(Cl)cc4)n3)cc2)cc1`, for which the 50% inhibitory concentration (IC50) was 0.886 µM (active).
With `CC(/C=C1\SC(=S)N(NS(=O)(=O)c2ccccc2)C1=O)=C\c1ccccc1`, the IC50 is 20.6 µM (active).

The target of a further experiment is T2, Sentrin-specific protease 7 (Homo sapiens, UniProt Q9BQF6).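 Further: Luminescence-based dose-response confirmation of ultra-high-throughput screening hits, measuring inhibition of SENP7.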
T2 sequence (Q9BQF6 whole entry): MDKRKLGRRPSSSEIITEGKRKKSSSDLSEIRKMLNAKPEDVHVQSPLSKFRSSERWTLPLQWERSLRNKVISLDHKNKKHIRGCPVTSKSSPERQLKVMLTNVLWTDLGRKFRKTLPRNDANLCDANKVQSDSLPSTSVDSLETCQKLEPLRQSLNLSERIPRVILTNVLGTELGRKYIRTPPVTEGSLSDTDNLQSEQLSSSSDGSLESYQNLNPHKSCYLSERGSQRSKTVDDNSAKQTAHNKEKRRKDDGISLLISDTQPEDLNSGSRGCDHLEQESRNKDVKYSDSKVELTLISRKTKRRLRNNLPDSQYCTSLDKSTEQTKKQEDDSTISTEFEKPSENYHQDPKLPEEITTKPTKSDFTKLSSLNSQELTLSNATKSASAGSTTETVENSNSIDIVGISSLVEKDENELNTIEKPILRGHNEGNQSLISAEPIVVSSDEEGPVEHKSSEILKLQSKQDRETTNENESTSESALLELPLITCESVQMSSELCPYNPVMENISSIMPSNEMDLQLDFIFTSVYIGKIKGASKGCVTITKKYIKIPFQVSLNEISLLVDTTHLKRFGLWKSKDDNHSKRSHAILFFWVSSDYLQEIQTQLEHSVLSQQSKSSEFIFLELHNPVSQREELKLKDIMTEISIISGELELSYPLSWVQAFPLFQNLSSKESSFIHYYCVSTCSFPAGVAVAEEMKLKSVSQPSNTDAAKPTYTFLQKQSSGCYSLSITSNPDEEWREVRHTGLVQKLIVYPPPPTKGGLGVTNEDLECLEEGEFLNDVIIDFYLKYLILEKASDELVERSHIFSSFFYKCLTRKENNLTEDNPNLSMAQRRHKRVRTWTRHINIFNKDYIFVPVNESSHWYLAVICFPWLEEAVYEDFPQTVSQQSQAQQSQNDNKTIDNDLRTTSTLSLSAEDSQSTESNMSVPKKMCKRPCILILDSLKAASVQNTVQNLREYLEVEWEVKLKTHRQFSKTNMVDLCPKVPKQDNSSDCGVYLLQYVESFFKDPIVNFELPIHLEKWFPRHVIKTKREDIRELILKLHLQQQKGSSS
Format: functional.
Take `COc1ccc(C(=O)Nc2nc3c(s2)Cc2cc(OC)ccc2-3)cc1`: the IC50 was 2.36 µM (active).
`Cc1oc2c(c1C(=O)c1ccccc1)C(=O)C(=O)c1ccccc1-2`: the IC50 was 9.15 µM (active).
For the molecule `CC(/C=C1\SC(=S)N(NS(=O)(=O)c2ccccc2)C1=O)=C\c1ccccc1`, the IC50 was 30.7 µM (active).

For a further experiment, the target named is T3, Sentrin-specific protease 8 (Homo sapiens, UniProt Q96LD8).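 Further: luminescence read-out of SENP8 inhibition, dose-response confirmation following an ultra-high-throughput screen.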
T3 sequence (Q96LD8 whole entry): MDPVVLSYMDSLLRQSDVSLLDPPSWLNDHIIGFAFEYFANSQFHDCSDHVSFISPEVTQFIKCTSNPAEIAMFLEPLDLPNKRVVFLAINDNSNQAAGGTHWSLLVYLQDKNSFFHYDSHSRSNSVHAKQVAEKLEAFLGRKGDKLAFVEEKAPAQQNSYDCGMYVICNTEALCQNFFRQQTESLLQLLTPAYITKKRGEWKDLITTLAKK
Format: functional.
For `COc1ccc(C(=O)Nc2nc3c(s2)Cc2cc(OC)ccc2-3)cc1`, the IC50 was 2.29 µM (active).
Take `Cc1oc2c(c1C(=O)c1ccccc1)C(=O)C(=O)c1ccccc1-2`: the IC50 is 12.8 µM (active).
Consider `CC(/C=C1\SC(=S)N(NS(=O)(=O)c2ccccc2)C1=O)=C\c1ccccc1`, for which the IC50 was 2.86 µM (active).

The next experiment deals with T4, Sentrin-specific protease 6 (Homo sapiens, UniProt Q9GZR1).
T4 sequence (Q9GZR1 whole entry): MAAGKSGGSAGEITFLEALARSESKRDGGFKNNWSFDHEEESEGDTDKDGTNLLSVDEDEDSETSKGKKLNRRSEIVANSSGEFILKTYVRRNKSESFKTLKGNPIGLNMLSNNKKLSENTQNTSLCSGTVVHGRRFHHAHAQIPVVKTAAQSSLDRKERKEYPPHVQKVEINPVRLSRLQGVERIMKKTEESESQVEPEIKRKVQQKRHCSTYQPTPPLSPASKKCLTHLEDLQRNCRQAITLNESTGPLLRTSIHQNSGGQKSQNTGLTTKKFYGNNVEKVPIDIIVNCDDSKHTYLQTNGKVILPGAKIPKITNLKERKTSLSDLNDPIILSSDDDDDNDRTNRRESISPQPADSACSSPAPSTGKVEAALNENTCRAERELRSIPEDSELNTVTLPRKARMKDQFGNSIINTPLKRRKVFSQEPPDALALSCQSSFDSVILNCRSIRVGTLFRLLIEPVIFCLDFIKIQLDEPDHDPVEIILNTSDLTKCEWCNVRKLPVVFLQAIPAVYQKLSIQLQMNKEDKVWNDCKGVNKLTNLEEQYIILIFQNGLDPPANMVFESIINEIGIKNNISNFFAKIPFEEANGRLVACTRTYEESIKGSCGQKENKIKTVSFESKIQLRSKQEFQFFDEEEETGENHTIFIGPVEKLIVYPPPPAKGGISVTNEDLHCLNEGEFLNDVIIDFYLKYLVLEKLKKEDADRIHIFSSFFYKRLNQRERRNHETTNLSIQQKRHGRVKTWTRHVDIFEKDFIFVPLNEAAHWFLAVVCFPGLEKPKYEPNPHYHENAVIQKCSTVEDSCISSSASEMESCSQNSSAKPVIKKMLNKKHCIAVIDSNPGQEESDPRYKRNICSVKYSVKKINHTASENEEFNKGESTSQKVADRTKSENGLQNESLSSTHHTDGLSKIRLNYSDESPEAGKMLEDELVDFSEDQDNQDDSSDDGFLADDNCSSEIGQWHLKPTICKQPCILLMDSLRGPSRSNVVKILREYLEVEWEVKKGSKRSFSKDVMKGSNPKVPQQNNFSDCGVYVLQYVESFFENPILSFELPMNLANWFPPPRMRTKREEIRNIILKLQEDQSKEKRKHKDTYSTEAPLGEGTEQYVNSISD
The format is functional.
As for `COc1ccc(C(=O)Nc2nc3c(s2)Cc2cc(OC)ccc2-3)cc1`, the IC50 is 1.65 µM (active).
As for `Cc1oc2c(c1C(=O)c1ccccc1)C(=O)C(=O)c1ccccc1-2`, the IC50 was 6.87 µM (active).
As to `CC(/C=C1\SC(=S)N(NS(=O)(=O)c2ccccc2)C1=O)=C\c1ccccc1`, the IC50 is 2.64 µM (active).
